PubChem BioAssay AID179 (DTP/NCI, 2004)
Values joined by “and” are separate entries in the source; they are usually repeats but may differ in a detail not shown here. Identical values can stand only once. Active and inactive are the calls of the source.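 How the source made its calls: active means compounds giving half or more protection of infected cells from virus-caused growth loss, again on retest; inactive means the rest.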

Test system: CEM cells HIV-1 protection, formazan growth assay
Experiment: NCI AIDS Antiviral Assay
Conditions: for IC50: measured here: growth of uninfected CEM cells
How it was run: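 Human CEM cells, uninfected and HIV-1-infected, received five drug concentrations, and growth was read by soluble formazan assay. Compounds giving at least 50% protection were retested; reproducible 100% protection defined confirmed active.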

SMILES | outcome | EC50 | IC50
CC(/C(=N\Nc1ccccc1)c1ccc(O)cc1)C1C(=O)Oc2ccccc21 (configuration not stated) | inactive | – | –
CC(=O)O[C@H]1CC[C@@]2(C)C(=CC[C@@H]3C2CC[C@]2(C)Nc4c(cnn4-c4ccccc4)CC32)C1 (some centres not stated) | inactive | – | –
NC(=O)CNC(=O)c1ccccc1SC(=O)CCC[n+]1ccccc1 | – | 1.17 µM | 25.7 µM
c1ccc(C2=NOC3C4CCC(C4)C23)cc1 (configuration not stated) | inactive | – | –
Clc1ccc(SC(/C=C/NNC2=NC(c3ccccc3)C(c3ccccc3)=NN2)c2ccccc2)cc1 (configuration not stated) | – | > 7.24 µM | 5.62 µM
COC(=O)C(C)(C)C(OP(=S)(OC)OC)=C(C)C | – | > 200 µM | > 200 µM
CN=C1Nc2ccccc2C(=O)N2CSCC12 (configuration not stated) | – | > 200 µM | > 200 µM
O=C(Nc1ccn(CCO)c(=O)n1)c1ccccc1 | – | > 692 µM | > 692 µM
Cc1c(N=O)c(=O)n(-c2ccccc2)n1C | inactive | – | –
Cc1cn([C@H]2C[C@@H]3[C@@H](COC(CCl)N3O)O2)c(=O)[nH]c1=O (some centres not stated) | – | > 200 µM | 31.6 µM
c1ccc2c(c1)cnc1c3ccccc3nn21 | – | > 17.4 µM | > 17.4 µM
Cc1cc2c(c(N)c1C)C(=O)c1ccccc1C2=O | inactive | – | –
CC1(C)C(=O)N(O)C(C)(C)N1O | – | > 200 µM | > 200 µM
Nc1nc(Cl)c(CO)c(NCC2(CO)CCC2)n1 | – | > 200 µM | 191 µM
COc1ccc2oc3c(C)cc4c(OC)nnc(OC)c4c3c2c1 | – | > 200 µM | 12.6 µM
Nc1c(-c2nc3ccccc3[nH]2)sc(=S)n1-c1ccc(Cl)cc1 | – | > 14.5 µM | > 14.5 µM
NS(=O)(=O)c1ccc(NC(=S)/N=C\C(C(=O)c2ccccc2)=C(\O)c2ccccc2)cc1 | – | > 200 µM | 105 µM
CCOC(=O)/C(=C\c1cccc(C(F)(F)F)c1)[Se]c1ccccc1 | – | > 18.2 µM | > 18.2 µM
COc1ccc2c3c1OC1C4(CCC5C(C2)N(CC2CC2)CCC351)OCCO4 (configuration not stated) | – | > 129 µM | > 129 µM
O=C1N2Cc3c4ccc5c3CN3C(=O)N6Cc7c(ccc(c7CN1C6(c1ccccc1)C23c1ccccc1)OCCOCCOc1cc(Br)c(Br)cc1OCCOCCO4)OCCOCCOc1cc(Br)c(Br)cc1OCCOCCO5 (configuration not stated) | – | > 0.55 µM | > 0.55 µM
CCC(CO)Nc1nc2c(c(=O)n(C)c(=O)n2C)n1CCO (configuration not stated) | inactive | – | –
O=C1C2CC[C@@H]3C(=O)C(Cl)(Cl)[C@@H]3CCC2C1(Cl)Cl (some centres not stated) | – | > 200 µM | > 200 µM

SMILES | outcome | EC50 | IC50
CC1CN2CCc3c([nH]c4ccccc34)C2C[C@@H]1CC(=O)N(C)C (some centres not stated) | – | > 191 µM | > 191 µM
COc1ccc(C(c2ccc(C(C)C)cc(=O)c2O)c2c(O)cc3oc(-c4ccccc4)cc(=O)c3c2O)cc1 (configuration not stated) | inactive | – | –
NC(=O)OCc1c(-c2ccccc2)nn(-c2ccccc2)c1COC(N)=O | – | > 200 µM | > 200 µM
CCOC1=NC(C(F)(F)F)(C(F)(F)F)N=C(N2CCOCC2)O1 | – | > 200 µM | > 200 µM
CC1=CCC2(C#N)CCC1C2=O (configuration not stated) | – | > 251 µM | > 251 µM
Cc1ccc(NC(=O)C2C(=O)N(c3ccc(C)c(C)c3)C(=O)/C2=N\NC(N)=O)cc1C (configuration not stated) | inactive | – | –
O=C1Nc2ccccc2C12OCCS2 (configuration not stated) | inactive | – | –
CC12CCC(C(=O)OC1=O)C2(C)C (configuration not stated) | – | > 200 µM | > 200 µM
COc1cc2nc3c(nc2cc1OC)-c1ccccc1C3=O | – | 3.02 µM | 9.33 µM
COc1cc(OC)c(OC)cc1/C=C1\C=Cc2ccccc21 | – | > 17.8 µM | > 17.8 µM
Cn1c([N+](=O)[O-])cnc1N1CCN(c2nncs2)C1=O | – | > 200 µM | > 200 µM
CC1CN(c2cc3c(cc2F)c(=O)c(C(=O)O)cn3-c2ccc(N3CCN(C)CC3)cn2)CC(C)N1 (configuration not stated) | – | > 145 µM | 123 µM
O=c1cnn(C2OC(CO)C(O)C2O)c(=S)[nH]1 (configuration not stated) | – | > 2 µM | 0.182 µM
CN(C)/C=C1\CCc2ccc([N+](=O)[O-])cc2C1=O | – | > 200 µM | 93.3 µM
CC(C)OC(=O)C1=C(O)c2ccccc2S(=O)(=O)N1C | – | > 832 µM | 56.2 µM
C=CCC1C2CCC(O[Si](C(C)C)(C(C)C)C(C)C)(C(C(=O)OC)C2)C1O (configuration not stated) | – | > 200 µM | 91.2 µM
COc1ccc(/C=N/NS(=O)(=O)c2ccc(/C=C3\NC(=O)N(C)C3=O)cc2)cc1 | – | > 200 µM | > 200 µM
CN1CCN(c2[nH]c(=O)n(-c3ccccc3)c(=S)c2C#N)CC1 | – | > 200 µM | > 200 µM
CN(C)CCCSCCOc1nccc(-c2ccc(-c3ccc(-c4ccnc(OCCSCCCN(C)C)n4)s3)s2)n1 | – | 1.1 µM | 2.75 µM
O=C1Nc2ccccc2C1(O)Cc1ccccn1 (configuration not stated) | – | > 1050 µM | > 1050 µM
Nc1nc(Cl)cc(NCC2(CO)COC2)n1 | – | > 200 µM | > 200 µM
Cc1ccc(N2C(=O)C3c4[nH]c5ccc(C)cc5c4C4CCC(C(C)(C)C)CC4C3C2=O)cc1 (configuration not stated) | – | > 200 µM | 13.8 µM

SMILES | outcome | EC50 | IC50
C=C1CC2CC(=O)C(O)C(C1)C2 (configuration not stated) | – | > 200 µM | > 200 µM
N#CCC(=O)N/N=C1/C(=O)N(c2ccc(Cl)cc2)C(=O)C(=O)C1c1nc2ccccc2s1 (configuration not stated) | inactive | – | –
CN(N=O)C(N)=NC(=O)c1ccccc1 | – | > 200 µM | 141 µM
O=C1c2ccccc2C(=O)[C@@]23O[C@@]12C1(Oc2cccc4cccc(c24)O1)[C@@H]1O[C@@H]1[C@@H]3O | – | > 20 µM | 1.15 µM
Cc1csc2n/c(=N/[N+](=O)[O-])sn12 | – | > 138 µM | 66.1 µM
CCCNC(=O)c1ccccc1C(=O)C(Cl)c1ccccc1 (configuration not stated) | – | > 214 µM | > 214 µM
CC12CCc3ccccc3C1=NNC(=O)C2 (configuration not stated) | – | > 170 µM | > 170 µM
CCOC(=O)/C(C#N)=C/c1cc2c3c(c1)CCCN3CCC2 | – | > 100 µM | > 100 µM
CC1(C)c2ccccc2C(C)(C)[N+]1(C)C | – | > 200 µM | 123 µM
c1ccc2c(c1)ccc1c2nc2c3ccccc3[nH]n12 | – | 0.245 µM | 10.7 µM
COC(=O)NC1=Nc2ccccc2N(C(=O)Oc2ccccc2)S1 | – | > 75.9 µM | 9.33 µM
COC(=O)c1ccc(-n2c(C)nc(=O)c(-c3ccccc3)c2C)cc1 | – | > 100 µM | > 100 µM
CCC(=O)C[P+](c1ccccc1)(c1ccccc1)c1ccccc1 | – | > 200 µM | 69.2 µM
C[C@@H]1C[C@H](O)[C@]2(O)O[C@@H]3C[C@@]4(C=O)[C@@H](CC=C5[C@@H]4CC[C@]4(C)[C@@H](C6=CC(=O)OC6)CC[C@]54O)C[C@H]3O[C@@H]2O1 | – | > 0.1 µM | 0.0138 µM
CCOP(=O)(OCC)/C(C#N)=C/c1ccccc1O | – | > 891 µM | > 891 µM
Cc1ccc(S(=O)(=O)N/N=C2\C=C[C@]3(CC2)C(=O)N(C)c2ccccc23)cc1 | – | > 200 µM | 102 µM
O=C1CC2(C[C@@H]3CCCCCCCCC[C@@H](C3)C2)N1 (some centres not stated) | – | > 200 µM | 40.7 µM
CCOc1ccc(OCC)c([P+](c2ccccc2)(c2ccccc2)c2ccccc2)c1 | inactive | – | –
O=C1CC(Br)C(c2ccccc2)(c2ccccc2)O1 (configuration not stated) | – | > 81.3 µM | > 81.3 µM
CC(C)CCCC(C)[C@H]1CC[C@H]2[C@@H]3CC[C@H]4C[C@@H](CCC=C(c5cc(Cl)c(OCc6ccc(B(O)O)cc6)c(C(=O)O)c5)c5cc(Cl)c(OCc6ccc(B(O)O)cc6)c(C(=O)O)c5)CC[C@]4(C)[C@H]3CC[C@]12C (some centres not stated) | – | 5.89 µM | 93.3 µM
O=C(Nc1ccc(C(F)(F)F)cc1[N+](=O)[O-])C(=O)C(C(=O)c1ccc2ccccc2c1)C1OC(=O)c2ccccc21 (configuration not stated) | – | > 64.6 µM | 33.9 µM
OC1c2ccccc2C2(O)C1C(c1ccccc1)C(c1ccccc1)C2(O)c1ccccc1 (configuration not stated) | inactive | – | –

SMILES | outcome | EC50 | IC50
COc1cc2c(c(OC)c1OC)-c1ccc(OC)c(=O)cc1C(NC1=C(Cl)C(=O)c3ccccc3C1=O)CC2 (configuration not stated) | – | > 174 µM | 0.0562 µM
C=C1CN(S(=O)(=O)c2ccc(C)cc2)CCCN(C(=O)OC)CCCN(S(=O)(=O)c2ccc(C)cc2)C1 | – | > 200 µM | 107 µM
O=C1C(=O)N(c2cccc(C(F)(F)F)c2)C(=S)N1c1ccccc1 | – | > 200 µM | 30.9 µM
CC(C)=CCCC(O)C1CCC2C3CCC4CCCCC4(C)C3CCC12C (configuration not stated) | – | > 100 µM | 87.1 µM
CCN(CC)CCNc1ccc(CO)c2sc3ccccc3c(=O)c12 | inactive | – | 2690 µM
N#Cc1cc2c(n(C3OC(CO)C(O)C(O)C3O)c1=S)CCCCC2 (configuration not stated) | – | > 200 µM | > 200 µM
CN(C)CCCCN1c2ccccc2Sc2ccc(N=[N+]=[N-])cc21 | – | > 200 µM | 3.24 µM
CCC(C)[P+](c1ccccc1)(c1ccccc1)c1ccccc1 (configuration not stated) | – | > 200 µM | 2.63 µM and 2.51 µM
CCCCC1Sc2cc(OC)cc(N)c2NC1=O (configuration not stated) | – | > 200 µM | 158 µM
Oc1cnc2c(O)cccc2c1 | – | > 200 µM | 17.8 µM
CC1(C)CCC[C@@]2(C)C1CC[C@@]1(CO1)[C@@H]2/C=C\C(C=O)CC=O (some centres not stated) | inactive | – | –
Clc1ccc(Nc2nnc(CNc3ccc(-c4nnc(Nc5ccc(Cl)cc5)o4)cc3)o2)cc1 | – | > 200 µM | 1.23 µM
COc1cc(N)c2c(c1)SCC(=O)N2 | – | > 200 µM | 148 µM
CCC(=O)OC1CCn2c1nc1c2C(=O)C(C)=C(N2CC2)C1=O (configuration not stated) | – | > 200 µM | 0.575 µM
CCOc1ccc(N=Nc2ccc3oc(=O)c(C(=O)Nc4ccc(OC)cc4)cc3c2)cc1 | – | > 8.51 µM | > 8.51 µM
Oc1ccc(-c2c3ccccc3c(-c3ccc(O)cc3)c3ccccc23)cc1 | – | > 2.75 µM | > 2.75 µM
C/C(=N\NC(=O)c1cccc2c(=O)c3ccccc3[nH]c12)C1CC[C@H]2[C@@H]3CCC4=C/C(=N\NC(=O)c5cccc6c(=O)c7ccccc7[nH]c56)CC[C@]4(C)[C@H]3CC[C@]12C (some centres not stated) | – | > 50.1 µM | > 50.1 µM
Cc1ccc2c(c1)c1ccc3c(c1n2C)C(=O)C=CC3=O | – | > 100 µM | 2.45 µM
C=C1C[C@@H]2O[C@H]3[C@H]4[C@@H](C[C@@H](C)[C@@H](OC(C)=O)[C@H]42)[C@@H](C)CO[C@@]3(C)[C@H](OC(=O)CCCCCCC)C[C@H]1O | – | > 200 µM | 11 µM
